From article PMC9234956 (Journal of Medicinal Chemistry, 2022)
Changes are numbered by the printed parent chain. Structures can show the parent of a compound that is named as a salt. Where two headings read alike, the source gives them in different places. Marks after values point to notes of the source that are not given here. One block for each compound: values may come before it.

Assays:
[1] = rat, Tris salt, fasted
[2] = monkey, 5.0 mg/kg po, Tris salt, fasted
human GLP-1R [3] = biological target: T1, human GLP-1R (Homo sapiens, UniProt P43220); settings: for SA cAMP – BETP slope: slope of concentration-response curve
T1 sequence (P43220 24-463): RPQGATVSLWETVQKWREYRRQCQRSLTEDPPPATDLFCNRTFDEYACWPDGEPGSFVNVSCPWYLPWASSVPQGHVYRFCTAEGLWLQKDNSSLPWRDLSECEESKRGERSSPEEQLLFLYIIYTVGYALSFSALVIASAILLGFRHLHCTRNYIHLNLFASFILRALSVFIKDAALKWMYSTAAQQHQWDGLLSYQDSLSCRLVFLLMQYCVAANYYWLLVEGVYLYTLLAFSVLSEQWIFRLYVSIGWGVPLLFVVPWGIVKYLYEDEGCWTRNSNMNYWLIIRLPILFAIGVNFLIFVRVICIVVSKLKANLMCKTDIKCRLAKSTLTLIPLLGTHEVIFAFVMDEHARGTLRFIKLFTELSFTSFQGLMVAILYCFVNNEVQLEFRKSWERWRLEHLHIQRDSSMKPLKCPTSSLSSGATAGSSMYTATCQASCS

human GLP-1R [4] = biological target: T1, human GLP-1R; assay: βArr2 recruitment, DiscoverX PathHunter cell line, buffer with 0.1% BSA; format: cell-based; settings: for βArr2 slope: buffer containing 0.1% BSA
human GLP-1R [5] = biological target: T1, human GLP-1R; assay: βArr1 recruitment, DiscoverX PathHunter cell line, buffer with 0.1% BSA; format: cell-based; settings: buffer containing 0.1% BSA
human GLP-1R [6] = biological target: T1, human GLP-1R
human GLP-1R [7] = biological target: T1, human GLP-1R; assay: cAMP assay in candidate selection; settings: for CS cAMP slope: slope of concentration-response curve
[8] = Intrinsic metabolic clearance in human liver microsomes; format: in vitro ADME; settings: scaled from in vitro half-life; for CLint scaled: human, liver microsomes, HLM CLint
[9] = Intrinsic metabolic clearance in cryopreserved human hepatocytes; format: in vitro ADME
human GLP-1R [10] = biological target: T1, human GLP-1R; assay: BETP-sensitized cAMP screening assay; format: cell-based; settings: for SA cAMP + BETP slope: slope of concentration-response curve
human GLP-1R [11] = biological target: T1, human GLP-1R; settings: assay medium
rabbit GLP-1R = biological target: T2, rabbit GLP-1R (Oryctolagus cuniculus, UniProt G1SGD4); assay: cAMP accumulation, CHO cells expressing rabbit GLP-1R; format: cell-based
T2 sequence (G1SGD4 24-462): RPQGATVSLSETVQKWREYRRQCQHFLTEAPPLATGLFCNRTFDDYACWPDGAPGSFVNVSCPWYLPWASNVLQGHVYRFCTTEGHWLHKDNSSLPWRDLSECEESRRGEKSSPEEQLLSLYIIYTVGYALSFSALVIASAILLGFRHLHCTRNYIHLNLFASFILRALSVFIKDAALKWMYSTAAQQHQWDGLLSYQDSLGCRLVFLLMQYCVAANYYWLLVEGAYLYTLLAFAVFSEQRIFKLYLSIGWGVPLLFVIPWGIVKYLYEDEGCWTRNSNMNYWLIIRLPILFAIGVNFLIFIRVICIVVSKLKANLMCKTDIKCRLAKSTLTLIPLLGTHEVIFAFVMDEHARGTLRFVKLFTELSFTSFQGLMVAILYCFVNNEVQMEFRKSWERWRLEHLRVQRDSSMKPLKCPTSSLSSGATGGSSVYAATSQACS

[12] = single oral doses 3–300 mg, fasted
human GLP-1R [13] = biological target: T1, human GLP-1R; settings: relative to liraglutide; HEK 293 FAP-GLP1R
cynomolgus monkeys [14] = assay: Cynomolgus monkey food intake; format: in vivo; settings: 2.9 mg/kg subcutaneous once daily for 2 days
rat GLP-1R = biological target: T3, rat GLP-1R (Rattus norvegicus, UniProt P32301); assay: cAMP accumulation, CHO cells expressing rat GLP-1R; format: cell-based
T3 sequence (P32301 22-463): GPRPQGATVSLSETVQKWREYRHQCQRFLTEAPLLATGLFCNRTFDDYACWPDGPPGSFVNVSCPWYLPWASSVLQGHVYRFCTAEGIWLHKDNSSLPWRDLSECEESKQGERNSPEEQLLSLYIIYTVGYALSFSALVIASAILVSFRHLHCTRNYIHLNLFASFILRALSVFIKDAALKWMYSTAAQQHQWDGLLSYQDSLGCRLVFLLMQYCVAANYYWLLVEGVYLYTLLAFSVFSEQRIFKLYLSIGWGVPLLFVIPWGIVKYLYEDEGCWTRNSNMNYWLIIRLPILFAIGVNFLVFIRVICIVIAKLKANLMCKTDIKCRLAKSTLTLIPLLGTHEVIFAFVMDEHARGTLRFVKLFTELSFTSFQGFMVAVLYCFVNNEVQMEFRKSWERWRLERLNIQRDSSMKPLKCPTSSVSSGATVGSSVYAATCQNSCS

mouse GLP-1R S33W = biological target: T4, mouse GLP-1R S33W (Mus musculus, UniProt O35659, S33W)
T4 sequence (O35659 22-463 S33W): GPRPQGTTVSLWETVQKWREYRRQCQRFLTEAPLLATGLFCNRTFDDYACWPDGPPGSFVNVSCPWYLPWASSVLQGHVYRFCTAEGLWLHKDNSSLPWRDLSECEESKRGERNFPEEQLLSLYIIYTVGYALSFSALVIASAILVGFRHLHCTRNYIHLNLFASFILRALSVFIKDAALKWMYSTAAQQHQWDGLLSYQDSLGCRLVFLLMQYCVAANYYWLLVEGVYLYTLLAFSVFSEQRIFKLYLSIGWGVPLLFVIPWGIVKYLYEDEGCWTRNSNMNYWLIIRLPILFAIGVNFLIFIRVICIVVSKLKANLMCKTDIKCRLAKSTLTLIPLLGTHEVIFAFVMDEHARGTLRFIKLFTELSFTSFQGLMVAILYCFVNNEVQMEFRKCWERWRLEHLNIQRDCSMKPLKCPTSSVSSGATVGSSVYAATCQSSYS

cynomolgus monkeys [15] = assay: Intravenous glucose tolerance test; settings: iv infusion
mouse GLP-1R = biological target: T5, mouse GLP-1R (Mus musculus, UniProt O35659); assay: cAMP accumulation, CHO cells expressing mouse GLP-1R; format: cell-based
T5 sequence (O35659 22-463): T4 sequence (O35659 22-463 S33W) with W12S

in vivo [16] = settings: male, cynomolgus monkey, plasma, iv, 1 mg/kg
[17] = system: healthy adult participants; assay: Phase 1 first-in-human single ascending dose study: safety
human GLP-1R [18] = biological target: T1, human GLP-1R; remark: listed apart in the source
in vivo [19] = settings: male, Wistar-Han, rat, plasma, iv, 1 mg/kg
human GLP-1R W33S = human GLP-1R W33S (Homo sapiens, UniProt P43220, W33S); assay: cAMP, functional assessment of GLP-1R mutants: human W33S
human GLP-1R W33S, sequence (P43220 24-463 W33S): as the sequence (P43220 24-463) above, with W10S counted along it

GFP-tagged human GLP-1R = GFP-tagged human GLP-1R (Homo sapiens, UniProt P43220); assay: Confocal microscopy of GFP-tagged human GLP-1R in HEK 293 cells; format: cell-based; settings: stimulation for 30 min; reversible following a 2 h washout
GFP-tagged human GLP-1R, sequence (P43220 24-463): as the sequence (P43220 24-463) above

SMILES: N#Cc1ccc(COc2cccc(C3CCN(Cc4nc5ccc(C(=O)O)cc5n4C[C@@H]4CCO4)CC3)n2)c(F)c1 [Danuglipron, Tris salt, (S)-2-[(4-{6-[(4-Cyano-2-fluorobenzyl)oxy]pyridin-2-yl}piperidin-1-yl)methyl]-1-(oxetan-2-ylmethyl)-1H-benzo[d]imidazole-6-carboxylic Acid]
oral F ([1]; 5.0 mg/kg po): 11 (10, 12) %
oral F ([1]; 100 mg/kg po): 39 (37, 44) %
oral F [2]: 5.0 (4.0, 6.0) %

SMILES: CCn1cncc1Cn1c(CN2CCC(c3cccc(OCc4ccc(F)cc4F)n3)CC2)nc2ccc(C(=O)O)cc21 [PF-06883365]
SA cAMP – BETP slope (human GLP-1R [3]): 0.98 ± 0.12
βArr2 slope (human GLP-1R [4]): 0.79 ± 0.12
βArr1 slope (human GLP-1R [5]): 0.94 ± 0.013
[3H]PF-06883365 binding slope (human GLP-1R [6]): 1.0 ± 0.15
CS cAMP slope (human GLP-1R [7]): 1.1 ± 0.19

SMILES: Cn1c(CN2CCC(c3nc(OCc4ccc(Cl)cc4F)ncc3F)CC2)nc2ccccc21 [compound 2]
GLP-1R agonist activity in the unpotentiated cAMP SA (human GLP-1R [3]; without BETP): inactive
CLint scaled [8]: > 150 mL/min/kg
hHEP CLint [9]: 48 (n = 1) μL/min/million
SA cAMP + BETP slope (human GLP-1R [10]): 1.3 ± 0.75

SMILES: Cn1c(CN2CCC(c3cccc(OCc4ccc(Cl)cc4F)n3)CC2)nc2ccncc21 [compound 3]
SA cAMP – BETP slope (human GLP-1R [3]): 1.2 ± 0.26
CLint scaled [8]: 130 mL/min/kg
HLM CLint [8]: 140 ± 46 (n = 3) mL/min/kg
hHEP CLint [9]: 55 (n = 1) μL/min/million
βArr2 + BETP slope (human GLP-1R [11]): 0.97 ± 0.10
fold more potent than HTS hit 2 (human GLP-1R [10]; SA + BETP EC50): > 100 fold
SA cAMP + BETP slope (human GLP-1R [10]): 0.89 ± 0.17

Further lines, with some results ahead:

SA cAMP – BETP slope (human GLP-1R [3]): 0.75 ± 0.18
CLint scaled [8]: < 11 mL/min/kg
βArr2 + BETP slope (human GLP-1R [11]): 0.93 (0.98, 0.88)
SMILES: Cn1c(CN2CCC(c3cccc(OCc4ccc(Cl)cc4F)n3)CC2)nc2nccc(NCC(=O)O)c21 [compound 4]
SA cAMP + BETP slope (human GLP-1R [10]): 0.76 ± 0.058

SA cAMP – BETP slope (human GLP-1R [3]): 1.1 ± 0.17
CLint scaled [8]: 29 ± 4.4 mL/min/kg
βArr2 + BETP slope (human GLP-1R [11]): 0.69 ± 0.13
agonist character in CS cAMP assay (human GLP-1R [7]): full agonist
fold less potent in CS cell line than in SA (human GLP-1R [7]; CS vs SA cAMP EC50): ~20 fold
CS cAMP slope (human GLP-1R [7]): 1 ± 0.14
SMILES: Cn1c(CN2CCC(c3cccc(OCc4ccc(Cl)cc4F)n3)CC2)nc2ccc(C(=O)O)nc21 [compound 5]
SA cAMP + BETP slope (human GLP-1R [10]): 0.97 ± 0.15

SA cAMP – BETP slope (human GLP-1R [3]): 1.1 ± 0.11
agonist character in βArr2 recruitment (human GLP-1R [4]): partial agonist
βArr2 slope (human GLP-1R [4]): 1 ± 0.18
effect on cAMP levels (rabbit GLP-1R): did not increase cAMP levels
increase of plasma exposure (Cmax, AUCinf) with dose [12]: approximately dose-proportional
Bias factor (toward cAMP), cAMP vs Internalization (human GLP-1R [13]): 3.6
βArr1 slope (human GLP-1R [5]): 0.90 ± 0.067
effect on cAMP levels (rat GLP-1R): did not increase cAMP levels
[3H]PF-06883365 binding slope (human GLP-1R [6]): 1 ^b
cAMP signaling at mouse GLP-1R S33W (mouse GLP-1R S33W; listed as Danuglipron): restored
effect on cAMP levels (mouse GLP-1R): did not increase cAMP levels
clearance at 24 h (in vivo [16]): 13.8 mL/min/kg
half-life (in vivo [16]): 1.9 h
[125I]GLP-1 binding slope (human GLP-1R [18]): 0.70 ± 0.099
clearance at 24 h (in vivo [19]): 57.3 ± 8.68 mL/min/kg
half-life (in vivo [19]): 1.1 h
cAMP signaling at human GLP-1R W33S (human GLP-1R W33S): failed to induce signaling
cAMP signaling at human GLP-1R W33S (human GLP-1R W33S; listed as Danuglipron): negated
agonist character in CS cAMP assay (human GLP-1R [7]): full agonist
CS cAMP slope (human GLP-1R [7]): 1.1 ± 0.14
SMILES: N#Cc1ccc(COc2cccc(C3CCN(Cc4nc5ccc(C(=O)O)cc5n4C[C@@H]4CCO4)CC3)n2)c(F)c1 [danuglipron, (S)-2-[(4-{6-[(4-Cyano-2-fluorobenzyl)oxy]pyridin-2-yl}piperidin-1-yl)methyl]-1-(oxetan-2-ylmethyl)-1H-benzo[d]imidazole-6-carboxylic Acid]
food intake versus vehicle (cynomolgus monkeys [14]): inhibited food intake
cAMP signaling at mouse GLP-1R S33W (mouse GLP-1R S33W): increased the level of accumulation of cAMP
insulin secretion during IVGTT (cynomolgus monkeys [15]): increase in the rate of insulin secretion
rate of glucose disappearance (K value) during IVGTT (cynomolgus monkeys [15]): increased the rate of glucose disappearance
insulin secretion during IVGTT (cynomolgus monkeys [15]; listed as Danuglipron): enhanced insulin secretion
post-dose fasting serum glucose levels ([17]; after single doses, healthy participants): remained within the normal reference range
tolerability after po administration under fasted conditions ([17]; single doses 3 to 300 mg, healthy adults): generally well tolerated
SA cAMP + BETP slope (human GLP-1R [10]): 0.98 ± 0.029
intracellular accumulation of GFP-GLP-1R (GFP-tagged human GLP-1R): marked intracellular accumulation of the GFP-GLP-1R
